± gives the expanded uncertainty stated by the source.
Legend:
[1] = Molar enthalpy of transition or fusion; conditions: Crystal 2; Adiabatic calorimetry
[2] = Crystal 2; Adiabatic calorimetry
[3] = molar heat capacity at constant pressure; conditions: 101.33 kPa, Vacuum adiabatic calorimetry

O.O=C([O-])[C@H](O)[C@@H](O)CO.[Na+] [sodium (2R,3S)-2,3,4-trihydroxybutanoate hydrate]
Conditions	Molar enthalpy of transition or fusion [kcal/mol]	Triple point temperature [K]
[1]	1.37 ± 0.0143	–
[2]	–	311.4 ± 0.4

[3]
Conditions	molar heat capacity at constant pressure [J/K/mol]
77.95 K, Crystal 2	75 ± 0.26
79.37 K, Crystal 2	76.72 ± 0.27
81.36 K, Crystal 2	79.56 ± 0.28
83.91 K, Crystal 2	84.79 ± 0.3
86.36 K, Crystal 2	87.68 ± 0.3
88.76 K, Crystal 2	90.45 ± 0.31
91.09 K, Crystal 2	93.27 ± 0.35
93.36 K, Crystal 2	96.08 ± 0.36
95.59 K, Crystal 2	98.2 ± 0.36
97.78 K, Crystal 2	100.57 ± 0.37
99.92 K, Crystal 2	102.71 ± 0.38
102.04 K, Crystal 2	105.14 ± 0.38
104.12 K, Crystal 2	107.69 ± 0.39
106.16 K, Crystal 2	109.95 ± 0.4
108.18 K, Crystal 2	111.9 ± 0.4
110.17 K, Crystal 2	113.31 ± 0.41
112.13 K, Crystal 2	114.95 ± 0.41
114.07 K, Crystal 2	116.19 ± 0.41
115.97 K, Crystal 2	117.54 ± 0.42
117.86 K, Crystal 2	118.71 ± 0.42
119.77 K, Crystal 2	120.32 ± 0.43
121.62 K, Crystal 2	121.99 ± 0.43
123.51 K, Crystal 2	123.24 ± 0.43
125.33 K, Crystal 2	124.71 ± 0.44
127.14 K, Crystal 2	125.29 ± 0.44
128.86 K, Crystal 2	126.35 ± 0.44
130.68 K, Crystal 2	127.87 ± 0.45
132.5 K, Crystal 2	128.63 ± 0.45
134.24 K, Crystal 2	131.67 ± 0.46
135.97 K, Crystal 2	132.68 ± 0.46
137.73 K, Crystal 2	133.19 ± 0.46
139.48 K, Crystal 2	134.44 ± 0.47
141.23 K, Crystal 2	136.19 ± 0.47
142.86 K, Crystal 2	137.59 ± 0.48
144.61 K, Crystal 2	138.32 ± 0.48
146.3 K, Crystal 2	140.73 ± 0.49
147.99 K, Crystal 2	140.29 ± 0.48
149.61 K, Crystal 2	141.98 ± 0.49
151.3 K, Crystal 2	143.95 ± 0.5
152.96 K, Crystal 2	145.69 ± 0.5
154.61 K, Crystal 2	147.47 ± 0.51
156.3 K, Crystal 2	148.86 ± 0.51
157.86 K, Crystal 2	150.83 ± 0.52
159.54 K, Crystal 2	152.22 ± 0.52
161.17 K, Crystal 2	153.62 ± 0.52
162.73 K, Crystal 2	154.86 ± 0.53
164.35 K, Crystal 2	156.25 ± 0.53
165.91 K, Crystal 2	156.39 ± 0.53
167.53 K, Crystal 2	158.29 ± 0.54
169.09 K, Crystal 2	159.91 ± 0.54
172.12 K, Crystal 2	160.63 ± 0.55
176.29 K, Crystal 2	162.82 ± 0.55
180.3 K, Crystal 2	165.02 ± 0.56
184.22 K, Crystal 2	166.35 ± 0.56
188.18 K, Crystal 2	168.27 ± 0.57
191.97 K, Crystal 2	170.46 ± 0.57
195.83 K, Crystal 2	171.25 ± 0.58
199.61 K, Crystal 2	172.21 ± 0.58
203.33 K, Crystal 2	173.89 ± 0.58
207.04 K, Crystal 2	175.99 ± 0.59
210.68 K, Crystal 2	177.22 ± 0.59
214.32 K, Crystal 2	179.68 ± 0.6
217.96 K, Crystal 2	181.35 ± 0.61
221.51 K, Crystal 2	183.72 ± 0.61
225 K, Crystal 2	185.96 ± 0.62
228.51 K, Crystal 2	187.72 ± 0.63
231.95 K, Crystal 2	189.41 ± 0.63
235.39 K, Crystal 2	192.26 ± 0.64
238.79 K, Crystal 2	194.53 ± 0.65
242.04 K, Crystal 2	198.57 ± 0.66
245.39 K, Crystal 2	201.48 ± 0.67
248.7 K, Crystal 2	203.61 ± 0.67
252.08 K, Crystal 2	206.16 ± 0.68
255.46 K, Crystal 2	208.87 ± 0.69
258.7 K, Crystal 2	210.99 ± 0.7
262.01 K, Crystal 2	212.53 ± 0.7
265.32 K, Crystal 2	215.68 ± 0.71
268.57 K, Crystal 2	217.65 ± 0.72
271.77 K, Crystal 2	220.53 ± 0.73
275 K, Crystal 2	224.17 ± 0.74
278.12 K, Crystal 2	228.04 ± 0.75
281.3 K, Crystal 2	231.99 ± 0.76
284.42 K, Crystal 2	237.12 ± 0.78
287.53 K, Crystal 2	241.14 ± 0.79
290.52 K, Crystal 2	246.12 ± 0.8
293.51 K, Crystal 2	256.15 ± 260
296.36 K, Crystal 2	269.06 ± 270
299.17 K, Crystal 2	287.71 ± 290
301.89 K, Crystal 2	317.39 ± 320
304.46 K, Crystal 2	360.73 ± 360
306.87 K, Crystal 2	401.98 ± 400
309.17 K, Crystal 2	438.39 ± 440
311.36 K, Crystal 2	491.36 ± 490
318.51 K, Crystal 1	314.18 ± 1
320.91 K, Crystal 1	318.35 ± 1
323.31 K, Crystal 1	325.56 ± 1.1
325.78 K, Crystal 1	328.61 ± 1.1
328.18 K, Crystal 1	335.06 ± 1.1
330.58 K, Crystal 1	339.72 ± 1.1
332.99 K, Crystal 1	345.04 ± 1.1
335.32 K, Crystal 1	351.32 ± 1.1
337.66 K, Crystal 1	358.41 ± 1.1
340.01 K, Crystal 1	364.19 ± 1.2
342.27 K, Crystal 1	369.83 ± 1.2
344.55 K, Crystal 1	376.43 ± 1.2
346.82 K, Crystal 1	381.43 ± 1.2
349.03 K, Crystal 1	386.89 ± 1.2
351.17 K, Crystal 1	394.15 ± 1.3
353.25 K, Crystal 1	400.12 ± 1.3
355.33 K, Crystal 1	406.54 ± 1.3
357.27 K, Crystal 1	412.66 ± 1.3
359.16 K, Crystal 1	419.26 ± 1.3
360.91 K, Crystal 1	423.77 ± 1.4
362.53 K, Crystal 1	426.99 ± 1.4
364.09 K, Crystal 1	434.07 ± 1.4
365.32 K, Crystal 1	439.39 ± 1.4
366.56 K, Crystal 1	441.96 ± 1.4
367.66 K, Crystal 1	446.63 ± 1.4
368.51 K, Crystal 1	453.39 ± 1.5

— the NIST ThermoML archive (doi:10.1016/j.tca.2006.05.016)
